From patent US20080125435A1, “1-(Het)aryl-3-[hetaryl-piperidin-4-yl]-thioureas as modulators of the EP2 receptor” (priority 2006, published 2008)

How the values were obtained:
[1] = tested on: cumulus-ovum complexes (cumulus expansion); assay: Cumulus expansion test in vitro; type: cell-based, mice; conditions: competing with natural EP2 receptor agonist PGE2
Method: In immature female mice (strain: CD1 (ICR) von Charles River), folliculogenesis is induced at an age of 14-18 days by a single administration (intraperitoneal) of 10 I.U. of PMSG (Pregnant Mare Serum Gonadotropin; Sigma G-4877, Lot 68H0909). 47-50 hours after the injection, the ovaries are removed and the cumulus-ovum complexes removed. At this stage, the cumulus complex is not yet expanded.
The cumulus-ovum complexes are now incubated for 20-24 hours with prostaglandin E2 (PGE2) (1 μM), vehicle control (ethanol) or test substances. Medium: alpha-MEM medium with 0.1 mM IBMX, pyruvate (0.23 mM) glutamine (2 mM), pen/strep 100 IU/ml pen. and 100 μg/ml strep.) and HSA (8 mg/ml)). The cumulus expansion is then assessed by classification into four stages (after Vanderhyden et al. Dev Biol. 1990 August; 140(2):307-317).

[2] = molecular target: T1, EP2 subtype of the human PGE2 receptor (Homo sapiens, UniProt P43116); assay: cAMP antagonism test (test for antagonism in the presence of PGE2); type: cell-based; conditions: in presence of agonist PGE2
T1 construct: host or cells: cells in a cell culture plate
T1 sequence (P43116 whole entry): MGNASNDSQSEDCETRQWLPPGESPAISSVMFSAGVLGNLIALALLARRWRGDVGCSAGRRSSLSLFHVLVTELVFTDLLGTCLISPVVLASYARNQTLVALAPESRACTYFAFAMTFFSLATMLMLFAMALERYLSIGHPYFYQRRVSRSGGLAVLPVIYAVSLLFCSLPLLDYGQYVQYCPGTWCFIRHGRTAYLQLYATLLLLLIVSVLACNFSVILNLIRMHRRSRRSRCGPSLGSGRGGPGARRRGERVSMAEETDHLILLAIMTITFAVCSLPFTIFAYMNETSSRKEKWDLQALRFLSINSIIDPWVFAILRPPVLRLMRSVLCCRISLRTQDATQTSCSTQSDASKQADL
Description: (§1) The binding of PGE2 to the EP2 subtype of the human PGE2 receptor induces the activation of membrane adenylate cyclases and leads to the formation of cAMP. In the presence of the phosphodiesterase inhibitor IBMX, the cAMP accumulated through this stimulation and released by cell lysis is used in a competitive detection process. In this test, the cAMP in the lysate competes with cAMP-XL665 for the binding of an Eu cryptate-labeled anti-cAMP antibody. Here in the absence of cellular cAMP a maximal signal is produced, which is due to the coupling of this antibody to the cAMP-XL665 molecule. As a result, after excitation at 337 nm, a long-lasting emission signal at 665 nm (and at 620 nm) based on FRET (fluorescence resonance energy transfer) is produced. Both signals are measured in a suitable measuring instrument with time delay, i.e. after the background fluorescence has died away.
(§2) The substance solutions (0.75 μl) which contain 30% DMSO are placed in a test plate and are dissolved in 16 μl of a KRSB+IBMX stimulation solution (1× cancer Ringer bicarbonate buffer; Sigma-Aldrich # K-4002; including 750 μM 3-isobutyl-1-methylxanthine Sigma-Aldrich # 1-7018), then 15 μl of this are transferred into a media-free cell culture plate which has been washed with KRSB shortly beforehand.
After a 30-minute preincubation at room temperature (RT), 5 μl of a 4×PGE2 solution (11 nM) are added and incubated in the presence of the agonist for a further 60 mins at RT (volume: ˜20 μl), before the reaction is then stopped by addition of 5 μl of lysis buffer and the mixture is incubated for a further 20 mins at RT (volume: ˜25 μl). The cell lysate is then transferred onto an assay plate and assayed in accordance with the manufacturer's instructions (cyclic AMP kit Cisbio International # 62AMPPEC).

[3] = molecular target: T1, EP2 subtype of the human PGE2 receptor; assay: cellular agonism test (cAMP); type: cell-based
Description: as §1
as §2, with “μl)” for “μl) which contain 30% DMSO are”, “and 30% DMSO” for “and”, “beforehand. […]” for “beforehand.”

SMILES	suppression of the expansion of the cumulus ([1]; at a concentration of 100-200 μM)	IC50 [2] [µM]	activity in the cellular agonism test [3]	suppression of cumulus expansion ([1]; at a 10 times lower concentration than AH 6809 (100-200 μM)) [%]
CC(C)Oc1ccc2c(=O)c3cc(C(=O)O)ccc3oc2c1 [AH 6809, reference compound]	ca. 30%			
CSc1ccc(NC(=S)NC2CCN(c3ccnc4cc(Cl)ccc34)CC2)cc1 [Example 1, 1-[1-(7-chloro-quinolin-4-yl)-piperidin-4-yl]-3-(4-methylsulfanyl-phenyl)-thiourea]		2.7		
S=C(Nc1ccccc1Br)NC1CCN(c2ccnc3cc(Cl)ccc23)CC1 [Example 8, 1-(2-bromo-phenyl)-3-(1-(7-chloro-quinolin-4-yl)-piperidin-4-yl)-thiourea]		3.8	no inhibition	20
CSc1ccccc1NC(=S)NC1CCN(c2ccnc3cc(Cl)ccc23)CC1 [Example 14, 1-(1-(7-chloro-quinolin-4-yl)-piperidin-4-yl)-3-(2-methylsulfanyl-phenyl)-thiourea]		3.4		
